Experimental data reported in US10624944B2, “Anti-inflammatory peptides for treating non-alcoholic steatohepatitis (NASH)” (Creative Bio-Peptides Inc., priority 2017, dated 2020).
Like-named read-outs stand apart in the source and are kept apart here. Square brackets hold non-standard residues; d marks the D form. Ends that are not written are not given here.

Experiments:
[1] = system: inflammatory cytokine levels; conditions: Hu; cited from earlier work
TLR4/MyD88 [2] = conditions: Rat; cited from earlier work
[3] = system: high fat diet mouse model of NAFLD; conditions: cited from earlier work
CCR2 [4] = target: T1, CCR2 (Homo sapiens, UniProt P41597); assay: CCL2 (MCP-1)-elicited chemotaxis of human monocytes; type: cell-based; design: endogenous in cells; host or cells: human monocytes; conditions: FIG. 3; methods similar to FIG. 2; low concentration
T1 sequence (P41597 whole entry): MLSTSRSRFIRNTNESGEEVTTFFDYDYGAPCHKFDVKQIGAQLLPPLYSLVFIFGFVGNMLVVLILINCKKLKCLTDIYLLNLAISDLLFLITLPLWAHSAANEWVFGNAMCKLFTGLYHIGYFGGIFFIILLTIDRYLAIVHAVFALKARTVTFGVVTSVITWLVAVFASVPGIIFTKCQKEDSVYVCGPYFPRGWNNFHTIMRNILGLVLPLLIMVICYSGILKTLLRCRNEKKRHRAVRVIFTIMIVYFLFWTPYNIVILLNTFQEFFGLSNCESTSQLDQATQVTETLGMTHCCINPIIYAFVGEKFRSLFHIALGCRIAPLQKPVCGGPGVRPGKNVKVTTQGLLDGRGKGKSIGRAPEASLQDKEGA
Procedure: Monocytes were treated with the indicated doses of RAP-103 for 30 min before chemotaxis against human CCL2 (MCP-1) or CCL4 (MIP-1β) (both 50 ng/mL) for 90 min. Data (chemotactic index) are presented as mean±SEM. The chemotactic index for MCP-1 without RAP-103 was 2.5-3.5 times over control, whereas for MIP-1 ? without RAP-103, it was approximately 2 times over control. Data are presented as mean±SEM. (*P<0.05, **P<0.01 vs RAP-103 untreated). Data are from [Padi, 2012, FIG. 1]. […] Dual-chemokine CCR2/CCR5 receptor antagonists may have added therapeutic value by blocking multiple inflammatory pathways.
Methods are similar to those in FIG. 2.

CCR5 = CCR5 (Homo sapiens, UniProt P51681); conditions: 30 min pretreatment; CCL4 50 ng/mL for 90 min; FIG. 2; cited from earlier work
CCR5, sequence (P51681 whole entry): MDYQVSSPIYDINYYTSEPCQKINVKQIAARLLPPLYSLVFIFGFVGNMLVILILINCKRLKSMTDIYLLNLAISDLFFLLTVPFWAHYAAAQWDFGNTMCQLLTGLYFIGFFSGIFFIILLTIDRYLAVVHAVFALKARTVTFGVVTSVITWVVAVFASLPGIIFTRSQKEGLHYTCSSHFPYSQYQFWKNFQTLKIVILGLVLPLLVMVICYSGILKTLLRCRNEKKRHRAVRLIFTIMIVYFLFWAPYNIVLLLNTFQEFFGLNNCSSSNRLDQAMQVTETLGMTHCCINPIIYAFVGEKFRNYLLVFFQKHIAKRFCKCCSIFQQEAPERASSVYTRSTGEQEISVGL

CCR2 [5] = target: T1, CCR2; conditions: 30 min pretreatment; CCL2 50 ng/mL for 90 min; FIG. 2; cited from earlier work
[6] = system: human monocyte derived immature dendritic cells (iDCs)
Text: In liver, TLR4 is expressed by all parenchymal and non-parenchymal cell types, and contributes to tissue damage caused by a variety of etiologies. TLR4 signaling occurs in hepatic stellate cells (HSCs), the major fibrogenic cell type in injured liver, and mediates an inflammatory phenotype leading to fibrogenesis.

TLR4/MyD88 [7] = conditions: iDCs treated at 10^-12 M for 30 min, then LPS 100 ng/ml, analyzed after 48 hrs
Procedure: To determine whether all-D-TTNYT (SEQ ID NO:1) blocks maturation of antigen-presenting dendritic cells, human PBMC's were isolated from peripheral blood by Ficoll-Paque centrifugation and then monocytes were isolated by negative selection using immunobeads (Miltenyi). Human monocyte derived immature dendritic cells (iDCs) were then generated by treating monocytes with GM-CSF/IL4.
After 30 min LPS (100 ng/ml) was added to the cells and cells were analyzed after 48 hrs. for surface maturation markers using fluorescent labeled antibodies by flow cytometry.

[8] = system: chemokines, chemokine receptors and cytokines; conditions: Rat, oral gavage 0.05-1 mg/kg for 7 days, nerve injured
Text: The specific experimental details are provided in Padi, 2012 (7).

response to bradykinin = conditions: amounts up to 50,000 times the standard challenge of bradykinin; cited from earlier work
[9] = listed as all-D-pentapeptide TTNYT

Dala1-peptide T-amide [DAPTA]
Change of ICAM-1 [1]: decrease
Change of IL-1 [1]: decrease
Change of IL-6 [1]: decrease
Change of IL-8 [1]: decrease
Change of IL-23 [1]: decrease
Change of NFkB [1]: decrease
Change of STAT3 [1]: decrease
Change of TNFα [1]: decrease
Change of TLR4/MyD88 (TLR4/MyD88 [2]): decrease

Maraviroc
CCL5/RANTES expression [3]: significantly lower
hepatic steatosis [3]: ameliorated hepatic steatosis

all-D-NTSYR ([dN][dT][dS][dY][dR]) [all-D-amino acid pentapeptide NTSYR]
CCL2 human monocyte chemotaxis (CCR2 [4]): antagonists

all-D-SSTYR ([dS][dS][dT][dY][dR]) [all-D-amino acid pentapeptide SSTYR]
CCL2 human monocyte chemotaxis (CCR2 [4]): antagonists

all-D-TTNYT
CCL4 (MIP-1β) human monocyte chemotaxis (chemotactic index) (CCR5): dual-antagonist
CCL2 (MCP-1) human monocyte chemotaxis (chemotactic index) (CCR2 [5]): dual-antagonist
DC maturation of the four markers caused by LL37 [6]: no effect
expression of maturation markers CD86, HLA-DR, CD58 and ICAM1 induced by TLR4/MyD88 activation (LPS) (TLR4/MyD88 [7]): reduces expression of all the maturation markers
Change of CCR2 [8]: decrease
Change of CCR5 [8]: decrease
Change of IL-6 [8]: decrease
Change of IL-β [8]: decrease
Change of MCP-1 (CCL2) [8]: decrease
Change of MIP-1α (CCL3) [8]: decrease
Change of TNFα [8]: decrease
Change of CCR2 [8, 9]: lowering expression
Change of CCR5 [8, 9]: lowering expression
Change of IL-β [8, 9]: lowering expression
Change of MCP-1 (CCL2) [8, 9]: lowering expression
Change of MIP-1α (CCL3) [8, 9]: lowering expression
Change of TNFα [8, 9]: lowering expression

all-D-TTSYT ([dT][dT][dS][dY][dT]) [all-D-amino acid pentapeptide TTSYT]
CCL2 human monocyte chemotaxis (CCR2 [4]): antagonists

all-D-bradykinin
inhibition of the response to bradykinin or bradykinin-like effect (response to bradykinin): neither any inhibition of the response to bradykinin, or any bradykinin-like effect
